{"source": "patent US20020052296A1", "about": "“Herbicidal synergistic combination of a dihydrobenzothiophene compound and a photosystem II inhibitor” (Intellectual Property Department, BASF Aktiengesellschaft, priority 2000, published 2002)", "conditions_in_all_cases": "18 days after treatment", "key": {"SORHA (Johnsongrass)": {"system": "SORHA (Johnsongrass)", "assay": "Greenhouse postemergence herbicidal evaluation, % weed control", "assay_type": "in vivo, Sorghum halepense", "experimental": "(§1) In the following examples, synergism for two-way combinations is determined by the Colby1 method, i.e. the expected (or predicted) response of the combination is calculated by taking the product of the observed response for each individual component of the combination when applied alone divided by 100 and subtracting this value from the sum of the observed response for each component when applied alone. Synergism of the combination is then determined by comparing the observed response of the combination to the expected (or predicted) response as calculated from the observed responses of each individual component alone. If the observed response of the combination is greater than the expected (or predicted) response then the combination is said to be synergistic and falls within the definition of synergistic effect as previously defined.\n(§2) In this evaluation, seedlings of the plant species listed below are grown in Metromix® soil in jiffy flats for about two weeks, to the 2-3 leaf growth stage. The test compounds are dispersed in water containing 1.0% Sunit II, a methylated seed oil of Agsco, Inc., and applied to the plants through a spray nozzle operating at 40 psi for a predetermined time so as to obtain a range of application rates of about 3.0 g/ha to 250 g/ha. Each treatment is replicated 3 times. After spraying, the plants are placed on greenhouse benches and are cared for in accordance with conventional greenhouse procedures. Eighteen days after treatment, the seedling plants are examined and the % weed control as compared to the untreated check is recorded.\n(§3) For replicated treatments, the data are averaged. The Colby method of analysis is used to determine the resultant biological effect of the combination treatment as compared to the biological effect of each component when applied alone. In Tables I and II, obs designates observed and exp designates expected."}, "SORBI (Shattercane)": {"system": "SORBI (Shattercane)", "assay": "Greenhouse postemergence herbicidal evaluation, % weed control", "assay_type": "in vivo, Sorghum bicolor", "experimental": "as §1, §2, §3"}, "CASOB (Sicklepod)": {"system": "CASOB (Sicklepod)", "assay": "Greenhouse postemergence herbicidal evaluation, % weed control", "assay_type": "in vivo, Senna obtusifolia", "experimental": "as §1, §2, §3"}, "ZEAMX (Corn)": {"system": "ZEAMX (Corn)", "assay": "Greenhouse postemergence herbicidal evaluation, crop response", "assay_type": "in vivo, Zea mays", "experimental": "as §1, §2, §3"}, "SETVI (Foxtail, green)": {"system": "SETVI (Foxtail, green)", "assay": "Greenhouse postemergence herbicidal evaluation, % weed control", "assay_type": "in vivo, Setaria viridis", "experimental": "as §1, §2, §3"}, "[1]": {"system": "BRAPP (Signalgrass, broadleaf)", "assay": "Greenhouse postemergence herbicidal evaluation, % weed control", "assay_type": "in vivo, Brachiaria platyphylla", "experimental": "as §1, §2, §3"}, "[2]": {"system": "PANMI (Millet, wild proso)", "assay": "Greenhouse postemergence herbicidal evaluation, % weed control", "assay_type": "in vivo, Panicum miliaceum", "experimental": "as §1, §2, §3"}, "SETFA (Foxtail, giant)": {"system": "SETFA (Foxtail, giant)", "assay": "Greenhouse postemergence herbicidal evaluation, % weed control", "assay_type": "in vivo, Setaria faberi", "experimental": "as §1, §2, §3"}, "PANDI (Fall panicum)": {"system": "PANDI (Fall panicum)", "assay": "Greenhouse postemergence herbicidal evaluation, % weed control", "assay_type": "in vivo, Panicum dichotomiflorum", "experimental": "as §1, §2, §3"}, "DIGSA (Crabgrass, large)": {"system": "DIGSA (Crabgrass, large)", "assay": "Greenhouse postemergence herbicidal evaluation, % weed control", "assay_type": "in vivo, Digitaria sanguinalis", "experimental": "as §1, §2, §3"}, "AGRRE (Quackgrass)": {"system": "AGRRE (Quackgrass)", "assay": "Greenhouse postemergence herbicidal evaluation, % weed control", "assay_type": "in vivo, Elytrigia repens", "experimental": "as §1, §2, §3"}, "ERBVI (Cupgrass, woolly)": {"system": "ERBVI (Cupgrass, woolly)", "assay": "Greenhouse postemergence herbicidal evaluation, % weed control", "assay_type": "in vivo, Eriochloa villosa", "experimental": "as §1, §2, §3"}, "ECHCG (Barnyardgrass)": {"system": "ECHCG (Barnyardgrass)", "assay": "Greenhouse postemergence herbicidal evaluation, % weed control", "assay_type": "in vivo, Echinochloa crus-galli", "experimental": "as §1, §2, §3"}}, "data": [{"compound": "Atrazine [reference compound]", "values": [{"measurement": "% WEED CONTROL SORHA Obs", "setting": "SORHA (Johnsongrass); 250 g/ha alone", "value": 0, "unit": "%"}, {"measurement": "% WEED CONTROL SORBI Obs", "setting": "SORBI (Shattercane); 250 g/ha alone", "value": 0, "unit": "%"}, {"measurement": "% WEED CONTROL CASOB Obs", "setting": "CASOB (Sicklepod); 250 g/ha alone", "value": 40, "unit": "%"}, {"measurement": "% crop injury, corn (observed)", "setting": "ZEAMX (Corn); 250 g/ha alone", "value": 0, "unit": "%"}, {"measurement": "% WEED CONTROL SETVI Obs", "setting": "SETVI (Foxtail, green); 250 g/ha alone", "value": 90, "unit": "%"}, {"measurement": "% WEED CONTROL BRAPP Obs", "setting": "[1]; 250 g/ha alone", "value": 20, "unit": "%"}, {"measurement": "% WEED CONTROL PANMI Obs", "setting": "[2]; 250 g/ha alone", "value": 60, "unit": "%"}, {"measurement": "% WEED CONTROL SETFA Obs", "setting": "SETFA (Foxtail, giant); 250 g/ha alone", "value": 85, "unit": "%"}, {"measurement": "% WEED CONTROL PANDI Obs", "setting": "PANDI (Fall panicum); 250 g/ha alone", "value": 5, "unit": "%"}, {"measurement": "% WEED CONTROL DIGSA Obs", "setting": "DIGSA (Crabgrass, large); 250 g/ha alone", "value": 15, "unit": "%"}, {"measurement": "% WEED CONTROL AGRRE Obs", "setting": "AGRRE (Quackgrass); 250 g/ha alone", "value": 45, "unit": "%"}, {"measurement": "% WEED CONTROL ERBVI Obs", "setting": "ERBVI (Cupgrass, woolly); 250 g/ha alone", "value": 10, "unit": "%"}, {"measurement": "% WEED CONTROL ECHCG Obs", "setting": "ECHCG (Barnyardgrass); 250 g/ha alone", "value": 85, "unit": "%"}]}, {"compound": "CCCS(=O)(=O)Oc1c(C(=O)c2ccc3c(c2C)C(C)(C)CS3(=O)=O)cnn1C", "note": "[DHBT IA, 1-propanesulfonic acid ester of 2,3-dihydro-3,3,4-trimethylbenzo [b]thien-5-yl 5-hydroxy-1-methylpyrazol-4-yl ketone S,S-dioxide]", "values": [{"measurement": "% WEED CONTROL SORHA Obs", "setting": "SORHA (Johnsongrass); 3.00 g/ha alone", "value": 35, "unit": "%"}, {"measurement": "% WEED CONTROL SORHA Obs", "setting": "SORHA (Johnsongrass); 6.00 g/ha alone", "value": 40, "unit": "%"}, {"measurement": "% WEED CONTROL SORHA Obs", "setting": "SORHA (Johnsongrass); 12.0 g/ha alone", "value": 65, "unit": "%"}, {"measurement": "% WEED CONTROL SORBI Obs", "setting": "SORBI (Shattercane); 3.00 g/ha alone", "value": 30, "unit": "%"}, {"measurement": "% WEED CONTROL SORBI Obs", "setting": "SORBI (Shattercane); 6.00 g/ha alone", "value": 35, "unit": "%"}, {"measurement": "% WEED CONTROL SORBI Obs", "setting": "SORBI (Shattercane); 12.0 g/ha alone", "value": 60, "unit": "%"}, {"measurement": "% WEED CONTROL CASOB Obs", "setting": "CASOB (Sicklepod); 3.00 g/ha alone", "value": 15, "unit": "%"}, {"measurement": "% WEED CONTROL CASOB Obs", "setting": "CASOB (Sicklepod); 6.00 g/ha alone", "value": 25, "unit": "%"}, {"measurement": "% WEED CONTROL CASOB Obs", "setting": "CASOB (Sicklepod); 12.0 g/ha alone", "value": 25, "unit": "%"}, {"measurement": "% crop injury, corn (observed)", "setting": "ZEAMX (Corn); 3.00 g/ha alone", "value": 0, "unit": "%"}, {"measurement": "% crop injury, corn (observed)", "setting": "ZEAMX (Corn); 6.00 g/ha alone", "value": 0, "unit": "%"}, {"measurement": "% crop injury, corn (observed)", "setting": "ZEAMX (Corn); 12.0 g/ha alone", "value": 0, "unit": "%"}, {"measurement": "% WEED CONTROL SETVI Obs", "setting": "SETVI (Foxtail, green); 3.00 g/ha alone", "value": 35, "unit": "%"}, {"measurement": "% WEED CONTROL SETVI Obs", "setting": "SETVI (Foxtail, green); 6.00 g/ha alone", "value": 100, "unit": "%"}, {"measurement": "% WEED CONTROL SETVI Obs", "setting": "SETVI (Foxtail, green); 12.0 g/ha alone", "value": 80, "unit": "%"}, {"measurement": "% WEED CONTROL BRAPP Obs", "setting": "[1]; 3.00 g/ha alone", "value": 25, "unit": "%"}, {"measurement": "% WEED CONTROL BRAPP Obs", "setting": "[1]; 6.00 g/ha alone", "value": 55, "unit": "%"}, {"measurement": "% WEED CONTROL BRAPP Obs", "setting": "[1]; 12.0 g/ha alone", "value": 100, "unit": "%"}, {"measurement": "% WEED CONTROL PANMI Obs", "setting": "[2]; 3.00 g/ha alone", "value": 40, "unit": "%"}, {"measurement": "% WEED CONTROL PANMI Obs", "setting": "[2]; 6.00 g/ha alone", "value": 70, "unit": "%"}, {"measurement": "% WEED CONTROL PANMI Obs", "setting": "[2]; 12.0 g/ha alone", "value": 95, "unit": "%"}, {"measurement": "% WEED CONTROL SETFA Obs", "setting": "SETFA (Foxtail, giant); 3.00 g/ha alone", "value": 35, "unit": "%"}, {"measurement": "% WEED CONTROL SETFA Obs", "setting": "SETFA (Foxtail, giant); 6.00 g/ha alone", "value": 55, "unit": "%"}, {"measurement": "% WEED CONTROL SETFA Obs", "setting": "SETFA (Foxtail, giant); 12.0 g/ha alone", "value": 90, "unit": "%"}, {"measurement": "% WEED CONTROL PANDI Obs", "setting": "PANDI (Fall panicum); 3.00 g/ha alone", "value": 40, "unit": "%"}, {"measurement": "% WEED CONTROL PANDI Obs", "setting": "PANDI (Fall panicum); 6.00 g/ha alone", "value": 55, "unit": "%"}, {"measurement": "% WEED CONTROL PANDI Obs", "setting": "PANDI (Fall panicum); 12.0 g/ha alone", "value": 75, "unit": "%"}, {"measurement": "% WEED CONTROL DIGSA Obs", "setting": "DIGSA (Crabgrass, large); 3.00 g/ha alone", "value": 50, "unit": "%"}, {"measurement": "% WEED CONTROL DIGSA Obs", "setting": "DIGSA (Crabgrass, large); 6.00 g/ha alone", "value": 70, "unit": "%"}, {"measurement": "% WEED CONTROL DIGSA Obs", "setting": "DIGSA (Crabgrass, large); 12.0 g/ha alone", "value": 85, "unit": "%"}, {"measurement": "% WEED CONTROL AGRRE Obs", "setting": "AGRRE (Quackgrass); 3.00 g/ha alone", "value": 20, "unit": "%"}, {"measurement": "% WEED CONTROL AGRRE Obs", "setting": "AGRRE (Quackgrass); 6.00 g/ha alone", "value": 30, "unit": "%"}, {"measurement": "% WEED CONTROL AGRRE Obs", "setting": "AGRRE (Quackgrass); 12.0 g/ha alone", "value": 35, "unit": "%"}, {"measurement": "% WEED CONTROL ERBVI Obs", "setting": "ERBVI (Cupgrass, woolly); 3.00 g/ha alone", "value": 0, "unit": "%"}, {"measurement": "% WEED CONTROL ERBVI Obs", "setting": "ERBVI (Cupgrass, woolly); 6.00 g/ha alone", "value": 15, "unit": "%"}, {"measurement": "% WEED CONTROL ERBVI Obs", "setting": "ERBVI (Cupgrass, woolly); 12.0 g/ha alone", "value": 40, "unit": "%"}, {"measurement": "% WEED CONTROL ECHCG Obs", "setting": "ECHCG (Barnyardgrass); 3.00 g/ha alone", "value": 45, "unit": "%"}, {"measurement": "% WEED CONTROL ECHCG Obs", "setting": "ECHCG (Barnyardgrass); 6.00 g/ha alone", "value": 60, "unit": "%"}, {"measurement": "% WEED CONTROL ECHCG Obs", "setting": "ECHCG (Barnyardgrass); 12.0 g/ha alone", "value": 80, "unit": "%"}]}]}
